Measurements as given in patent publication US6632643B2, “Use of α-1,4-glucan lyase for preparation of 1,5-D-hydrofructose” (Danisco A/S, priority 1993, dated 2003).

Key:
lyase from M. costata = assay: Relative degrading rates of the lyase from M. costata towards various substrates; type: biochemical, Morchella costata; settings: for activity (maltotetraose as 100%): purified fungal lyase, section B.1.4.3
M. vulgaris lyase = assay: Reversible inhibitors of the M. vulgaris lyase; type: biochemical, Morchella vulgaris; settings: 0.1 M inhibitor
Description: (§1) The reaction was carried out at 30 ° C. for 30 min and stopped by the addition of 3,5-dinitrosalicylic acid reagent. Optical density at 550 nm was measured after standing at room temperature for 10 min.

lyase from M. vulgaris = assay: Relative degrading rates of the lyase from M. vulgaris towards various substrates; type: biochemical, Morchella vulgaris; settings: for Activity (%) (maltotetraose = 100%): all substrates 10 mg ml^−1
Description: The activity observed for maltotetraose is treated as 100%. The final concentration of all substrates was 10 mg ml^−1.

[1] = tested on: α-1,4-glucan lyase isolated from M. costata; assay: Oligosaccharide specificity and AF formation by M. costata lyase, Dionex HPLC; type: biochemical, Morchella costata; settings: 30° C.
Description: The specificity of α-1,4-glucan lyase isolated from M. costata for different oligosaccharides was tested. […] The oligosaccharides were dissolved in H2O at a concentration of 8 mg/ml. The enzyme assay contained 150 μl substrate G2/G3/G4/G5/G6/G7, 120 μl 0.1M MBS pH 6.3 and 30 μl purified enzyme. The reaction mixture was incubated for 60 min at 30° C. Afterwards the reaction was stopped by boiling for 3 min and 900 μl absolute ethanol was added for precipitation. After centrifugation at 20.000×g for 5 min at 4° C. the supernatant was transferred to a new eppendorf tube and lyophilized.
The freeze-dried samples were dissolved in 1000 μl H2O and were filtrated through a 0.22 μm Millipore filter before 25 μl of the sample was loaded on the Dionex HPLC.
Analyses were performed on a Dionex 4500i chromatography system consisting of a GPM-2 pump and a PED detector which was used in pulse-amperometric detection mode.
α-1,4-glucan lyase from M.costata hydrolyses starch to the end-product 1,5-anhydrofructose. The end-product was shown by HPLC, method 2. The enzyme assay contained 500 μl amylopectin (20 mg/ml, dissolved in H2O), 400 μl 0.1M MES pH 6.3 and 100 μl purified enzyme. The reaction mixture was incubated at 30° C. and the reaction was stopped by boiling after 30 or 120 min incubation. […]

[2] = tested on: α-1,4-glucan lyase from the parasite-free red seaweed Gracilariopsis lemaneiformis; assay: Degradation rates of the Californian algal lyase on various substrates; type: biochemical; settings: for AF released: substrate 10 mg/ml, pH 3.8, 40 min at 45° C.
Description: Reaction conditions: The reaction mixture contained 10 mM of HOAc-NaOAc (pH 3.8). The substrate concentration was 10 mg/ml. The final volume was 100 ul after the addition of lyase and water. The reaction time was 40 min at 45° C.

M. costata lyase = assay: Reversible and irreversible inhibitors of the fungal lyase (M. costata); type: biochemical, Morchella costata; settings: 0.1 M inhibitor
Description: as §1
Under the same assay conditions and in the presence of 2 mM PCMB, the activity decreased by 60% for the M. costata lyase and 98% for the lyase from the fungal infected red algae. This means that the fungal lyase was much less sensitive to heavy metal inhibition.

α-1,4-glucan lyase = assay: Activity of the lyase towards maltosaccharides (summary); type: biochemical
[3] = Induction period of yogurt salad dressing with 50% oil; settings: 500 ppm; PF = IP with antioxidant / IP without
Description: For each temperature defined as PF=IP of the oil with added antioxidant/IP of the same oil without added antioxidant

[4] = Reduction of 3,5-dinitrosalicylic acid by AF; type: physicochemical
[5] = Induction period of 50% mayonnaise in bomb calorimeter, 80° C., pure O2; settings: +500 ppm
Description: In the test procedure the anti-oxidants were added to the mayonnaise to provide an anti-oxidant concentration in the order of about 500 ppm. The mayonnaise was then placed in a bomb calorimeter at temperature 80° C. containing pure O2. An induction period to the onset of substantial oxidation of the product is then measured.

[6] = ESR analysis of hydroxyl radical scavenging (Fenton reaction, DMPO spin trap); settings: H2O2 0.17 mM, Fe2+ 4.8 μM
Description: Hydroxyl radicals were generated by a Fenton reaction with H2O2 (0.17 mM) and FeSO4 (4.8 μM). The generated radicals were trapped by 5,5-dimethyl-1-pyrroline N-oxide (DMPO, 9.7 mM). AF was added in concentrations of 1.3 mM and 6.3 mM. A water soluble extract of rosemary (Rosmarinus officinalis L.) was analyzed in a concentration of 0.25 mg/ml (in grams equivalent to 1.26 mM AF). Measurements were carried out at room temperature (20±1° C.) after 120 s and repeated for the same reaction mixture after 300 s with the following spectrometer settings: Center field 3475.60 G; sweep width 55 G; microwave power 20 mW; modulation frequency 100 kHz; modulation amplitude 1.01 G; receiver gain 1.00·10^5; conversion time 81.92 ms time constant 163.84 ms and sweep time 83.89 s.
The generated hydroxyl radicals were trapped by DMPO. The spin adduct gives rise to a characteristic 1:2:2:1 ESR spectrum. The peak height of the spectrum is proportional to the quantitative amount of generated spin adduct. Addition of both DMPO and AF will set up a competition between the spin trap and AF. A reduction of peak height will indicate a good scavenging activity of AF.

[7] = Electrochemical oxygen consumption in methyl linoleate emulsion; settings: AF 15, 146 and 680 μM; MMb initiated; pH 5.8; 25.0 °C
Description: The activity of AF was investigated in a methyl linoleate emulsion as described by Jorgensen and Skibsted (Z. Lebensm. Unters. Forsch. (1993) 196: 423-429) with minor modifications: To 5.00 ml of a 1.33 mM methyl linoleate emulsion in 5.0 mM aqueous phosphate buffer with pH=5.8 and 0.2 w/w % Tween 20 as emulsifier was added AF in the following concentrations: 0, 15, 146 and 680μM. The oxidation in the system was initiated by addition of 50 μl 0.26 M metmyoglobin (MMb) final concentration 0.26 mM. Immediately after initiating the reaction the sample was injected to a thermostated (25.0±0.1° C.) 70 μl closed cell, effectively excluding diffusion of oxygen into the system. The oxygen consumption was measured by a Clark electrode, which was connected to a PC data collection program. The relative oxygen concentration (%) was registered every 30s.

Compound | activity (maltotetraose as 100%) (lyase from M. costata) | inhibition of lyase reaction (M. vulgaris lyase; Amylopectin (1%)) | inhibition of lyase reaction (M. vulgaris lyase; Glycogen (1%)) | Activity (%) (maltotetraose = 100%) (lyase from M. vulgaris) | AF released [2] | decrease of lyase activity (inhibition) (M. costata lyase; Amylopectin 2%) | lyase activity towards maltosaccharide (α-1,4-glucan lyase) | relative degrading rate (maltotetraose = 100%) (lyase from M. costata; substrate 2 mg/ml) | relative degrading rate (maltotetraose = 100%) (lyase from M. costata; substrate 4 mg/ml) | relative degrading rate (maltotetraose = 100%) (lyase from M. costata; substrate 10 mg/ml) | also measured
OC[C@H]1O[C@H](O[C@H]2[C@H](O)[C@@H](O)C(O)O[C@@H]2CO)[C@H](O)[C@@H](O)[C@@H]1O (mixture of isomers) [Maltose, maltose] | 2% | 80% | 57% | 10.1% | 657 nmol | (67.2%) | low activity |  |  |  | 1,5-anhydrofructose formed ([1]; 8 mg/ml substrate, pH 6.3, 60 min): almost no 1,5-anhydrofructose was formed; decrease of lyase activity (inhibition) (M. costata lyase; Glycogen 2%): (49.7%)
O=C1CO[C@H](CO)[C@@H](O)[C@@H]1O [AF, 1,5-D-anhydrofructose] |  |  |  |  |  |  |  |  |  |  | PF [3]: 1.06; reduction of 3,5-dinitrosalicylic acid to 3-amino-5-nitrosalicylic acid [4]: can easily reduce; IP (hours), Induction Period [5]: 32.0 h; inhibition of enzyme activity by the endproduct ([1]; amylopectin, 30 and 120 min incubation): not inhibited; Peak height [120 s] ([6]; Anhydro fructose 1.3 mM): 2634; Peak height [300 s] ([6]; Anhydro fructose 1.3 mM): 2545; Peak height [120 s] ([6]; Anhydro fructose 6.3 mM): 1781; Peak height [300 s] ([6]; Anhydro fructose 6.3 mM): 1900; oxygen consumption (relative oxygen concentration) [7]: a lag-phase is observed
O=C[C@H](O)[C@@H](O)[C@H](O)[C@H](O)CO [Glucose, glucose] |  | 28% | 5% |  |  | 7% |  |  |  |  | degradation (AF detectable on TLC plates) (lyase from M. costata; incubated for 48 h): no AF detectable; degradation (AF detectable on TLC plates) (lyase from M. vulgaris; incubated for 48 h): no AF detectable; degradation by the lyase [2]: not able to degrade; decrease of lyase activity (inhibition) (M. costata lyase; Glycogen 1% (10 mg/ml)): 0.000%; decrease of lyase activity (inhibition) (M. costata lyase; Glycogen 1% (10 mg/ml), listed as glucose): not affected
OC[C@H]1O[C@H](O[C@H]2[C@H](O)[C@@H](O)[C@@H](O[C@H]3[C@H](O)[C@@H](O)[C@@H](O[C@H]4[C@H](O)[C@@H](O)[C@@H](O[C@H]5[C@H](O)[C@@H](O)[C@@H](O[C@H]6[C@H](O)[C@@H](O)[C@@H](O[C@H]7[C@H](O)[C@@H](O)C(O)O[C@@H]7CO)O[C@@H]6CO)O[C@@H]5CO)O[C@@H]4CO)O[C@@H]3CO)O[C@@H]2CO)[C@H](O)[C@@H](O)[C@@H]1O (stereo partly drawn) [Maltoheptaose, maltoheptaose] | 76% |  |  | 73.9% | 865 nmol |  | lower activity | 82.2% | 81.5% | 75.7% | 
OC[C@H]1O[C@H](O[C@H]2[C@H](O)[C@@H](O)[C@@H](O[C@H]3[C@H](O)[C@@H](O)[C@@H](O[C@H]4[C@H](O)[C@@H](O)[C@@H](O[C@H]5[C@H](O)[C@@H](O)C(O)O[C@@H]5CO)O[C@@H]4CO)O[C@@H]3CO)O[C@@H]2CO)[C@H](O)[C@@H](O)[C@@H]1O (stereo partly drawn) [Maltopentaose, maltopentaose] |  |  |  | 79.3% | 674 nmol |  | highest activity | 107.1% | 100.1% | 99.7% | 
